Blank lines part the entries; values can stand above or below the compound they belong to.
Assay: solvent given as SMILES

fluorescence lifetime (in ClCCl): 2.7 ns
Compound: c1ccc(N(c2ccccc2)c2ccc(N(c3ccccc3)c3ccc4ccc5c(N(c6ccccc6)c6ccc(N(c7ccccc7)c7ccccc7)cc6)ccc6ccc3c4c65)cc2)cc1

fluorescence lifetime (in ClC(Cl)Cl): 7.5 ns
Compound: COc1cc(OC)c2c(c1)c1cc3oc(=O)cc(C)c3cc1c1cc(OC)cc(OC)c12

Compound: CC(=O)Nc1ccc2c3c(cccc13)C(=O)c1ccccc1-2
fluorescence lifetime (in CC#N): 10.3 ns | fluorescence lifetime (in CC(C)=O): 9.7 ns | fluorescence lifetime (in CC(C)O): 9.3 ns | fluorescence lifetime (in CCCCOCCCC): 1.9 ns | fluorescence lifetime (in CCOC(C)=O): 6.6 ns | fluorescence lifetime (in CCOCC): 2.6 ns | fluorescence lifetime (in CO): 8.3 ns | fluorescence lifetime (in Cc1ccccc1): 2.8 ns | fluorescence lifetime (in Clc1ccccc1): 5.9 ns | fluorescence lifetime (in N#Cc1ccccc1): 9.8 ns | fluorescence lifetime (in O=C1CCCCC1): 8.3 ns

Compound: N#Cc1cc(C#N)cc(-n2c3ccccc3c3cc(-c4ccc5c(c4)c4ccccc4n5-c4cc(C#N)cc(C#N)c4)ccc32)c1
fluorescence lifetime (in Cc1ccccc1): 24 ns

fluorescence lifetime (in C1CCCCC1): 2.4 ns
Compound: COC(=O)c1ccc(-c2nc3ccc(N(C)C)cc3s2)cc1

Compound: c1ccc(-c2nn(-c3ccccc3)c3nc4ccccc4cc23)cc1
fluorescence lifetime (in C1CCCCC1): 17.9 ns | fluorescence lifetime (in C1CCOC1): 21.2 ns | fluorescence lifetime (in CC#N): 25.1 ns | fluorescence lifetime (in CC(C)=O): 23.4 ns | fluorescence lifetime (in CCCCCl): 19.7 ns | fluorescence lifetime (in CCCCOCCCC): 18.6 ns | fluorescence lifetime (in CN(C)C=O): 22 ns

fluorescence lifetime (in O): 3.87 ns
Compound: Nc1cc([NH3+])cc(-c2nc3ccccc3s2)c1

fluorescence lifetime (in O): 4.2 ns
Compound: CC[n+]1nc2cc3c4c(c2c2cc(C)ccc21)CCCN4CCC3

fluorescence lifetime (in CC#N): 2 ns | fluorescence lifetime (in CCOC(C)=O): 1.7 ns
Compound: [C-]#[N+]c1ccc(-c2ccc(N)cc2)cc1

fluorescence lifetime (in CCO): 15.2 ns
Compound: O=C1c2cccc3cc4ccccc4c(c23)C(=O)N1Cc1ccccn1

fluorescence lifetime (in C1CCCCC1): 2.07 ns | fluorescence lifetime (in CCOC(C)=O): 0.52 ns
Compound: CC1=[N+]2C(=C(NC(C)c3ccccc3)c3ccc(C)n3[B-]2(F)F)C=C1c1cc2n(c1)[B-](F)(F)[N+]1=CC=CC1=C2c1c(C)cc(C)cc1C (stereo not drawn)

Compound: CCN(CC)c1ccc2nc3c4ccccc4c(=O)cc-3oc2c1
fluorescence lifetime (in C1CCCCC1): 2.76 ns | fluorescence lifetime (in C1COCCO1): 4.5 ns | fluorescence lifetime (in CC1COC(=O)O1): 4.4 ns | fluorescence lifetime (in CC#N): 4.7 ns | fluorescence lifetime (in CC(C)=O): 4.66 ns | fluorescence lifetime (in CC(C)O): 4.1 ns | fluorescence lifetime (in CCCC#N): 4.54 ns | fluorescence lifetime (in CCCCCCCCCCO): 4.19 ns | fluorescence lifetime (in CCCCCO): 3.95 ns | fluorescence lifetime (in CCCCO): 3.91 ns | fluorescence lifetime (in CCCCOCCCC): 4.15 ns | fluorescence lifetime (in CCCO): 3.8 ns | fluorescence lifetime (in CCO): 3.65 ns | fluorescence lifetime (in CCOC(C)=O): 4.53 ns | fluorescence lifetime (in CCOCC): 4.45 ns | fluorescence lifetime (in CN(C)C=O): 4.35 ns | fluorescence lifetime (in CO): 2.8 ns | fluorescence lifetime (in ClC(Cl)(Cl)Cl): 4.1 ns | fluorescence lifetime (in ClCCl): 4.48 ns | fluorescence lifetime (in OC(C(F)(F)F)C(F)(F)F): 0.94 ns | fluorescence lifetime (in OCC(F)(F)F): 1.76 ns | fluorescence lifetime (in OCC(O)CO): 1.95 ns | fluorescence lifetime (in OCCO): 2.5 ns | fluorescence lifetime (in [2H]OC): 4.2 ns | fluorescence lifetime (in [2H]OCC): 4.56 ns

fluorescence lifetime (in ClC(Cl)Cl): 2.68 ns
Compound: F[B-]1(F)OC(c2ccc(N3CCCCC3)cc2)=Cc2cccc[n+]21

Compound: O=[N+]([O-])c1ccc(/C2=C3N=C(C(c4ccccc4)=C/3c3ccccc3)/C(c3ccc([N+](=O)[O-])cc3)=c3\[nH]/c(c(-c4ccccc4)c3-c3ccccc3)=C(/c3ccc([N+](=O)[O-])cc3)C3=N/C(=C(/c4ccc([N+](=O)[O-])cc4)c4[nH]c2c(-c2ccccc2)c4-c2ccccc2)C(c2ccccc2)=C3c2ccccc2)cc1
fluorescence lifetime (in ClCCl): 0.395 ns

fluorescence lifetime (in CC#N): 3.4 ns
Compound: N#C/C(=C\c1ccc(C#N)cc1)c1nc(-c2ccccc2)cs1

Compound: c1ccc(N2c3ccccc3Sc3cc(-c4cccc5nc6ccccc6cc45)ccc32)cc1
fluorescence lifetime (in CC#N): 7.58 ns | fluorescence lifetime (in CCCCCC): 2.05 ns | fluorescence lifetime (in CCOCC): 3.96 ns | fluorescence lifetime (in ClCCl): 3.32 ns

Compound: O=P1(c2ccccc2)c2cc(N3c4ccccc4Sc4ccccc43)ccc2-c2ccc(N3c4ccccc4Sc4ccccc43)cc21
fluorescence lifetime (in c1ccc2c(c1)c1ccccc1n2-c1ccc(-c2ccc(-n3c4ccccc4c4ccccc43)cc2)cc1): 46.1 ns

fluorescence lifetime (in CC#N): 1.3 ns
Compound: Fc1cccc(-[c+]2c3ccccc3sc3ccccc32)c1

fluorescence lifetime (in CC#N): 2.3 ns | fluorescence lifetime (in CO): 0.8 ns
Compound: COc1ccc(-c2c(-c3ccc(OC)cc3)c3c4c(cccc4c2-c2ccccc2)C(=O)c2ccccc2-3)cc1

Compound: Cc1ccc(-c2cc(-c3ccccc3)c3c(N)nc(N4CCCC4)c(C#N)c3n2)cc1
fluorescence lifetime (in CC#N): 10.3 ns | fluorescence lifetime (in CC(C)=O): 9.9 ns | fluorescence lifetime (in CC(C)O): 10.4 ns | fluorescence lifetime (in CO): 8.5 ns | fluorescence lifetime (in ClC(Cl)Cl): 13.1 ns | fluorescence lifetime (in ClCCl): 13.1 ns | fluorescence lifetime (in c1ccccc1): 12.6 ns

fluorescence lifetime (in ClCCl): 153 ns | fluorescence lifetime (in OCC(F)(F)F): 152 ns
Compound: FC(F)(F)C(F)(F)C(F)(F)C(F)(F)C(F)(F)C(F)(F)CCOc1nnc(Cl)nn1

fluorescence lifetime (in CN(C)C=O): 3.8 ns
Compound: Nc1ccc(N2C(=O)c3ccc4c5ccc6c7c(ccc(c8ccc(c3c48)C2=O)c75)C(=O)N(c2ccc(N)cc2)C6=O)cc1

Compound: Cc1ccccc1
fluorescence lifetime (in C1CCCCC1): 50 ns

fluorescence lifetime (in CC#N): 0.99 ns
Compound: Cc1ccc(-c2ccc(/C=C/c3ccc(F)cc3)cn2)nc1

fluorescence lifetime (in C1CCOC1): 7.14 ns | fluorescence lifetime (in CO): 7.55 ns
Compound: CCOC(=O)C1=CN(c2ccccc2)C=CC1c1ccccc1 (stereo not drawn)

Compound: c1ccc(-c2cc(-c3nnc(-c4ccc(N5c6ccccc6Oc6ccccc65)cc4)o3)c(-c3ccccc3)c(-c3ccccc3)c2-c2ccccc2)cc1
fluorescence lifetime (in c1ccc(-n2c(-c3c(-n4c5ccccc5c5ccccc54)cccc3-n3c4ccccc4c4ccccc43)nc3ccccc32)cc1): 4.1 ns

fluorescence lifetime (in CC#N): 2.72 ns | fluorescence lifetime (in ClCCl): 3.13 ns
Compound: CCN(CC)c1ccc(/N=N/c2nc3ccc(OC)cc3s2)cc1

fluorescence lifetime (in C1CCOC1): 2.1 ns
Compound: FC(F)(F)C(F)(F)C(F)(F)C1=NC2=C(Br)C=C3c4cc(Br)c5nc(C(F)(F)C(F)(F)C(F)(F)F)nc6c(Br)cc(c4c56)=C4C=C(Br)C(=N1)C2C34 (stereo not drawn)

fluorescence lifetime (in C1CCCCC1): 2 ns
Compound: CN(C)c1ccc2nc(-c3ccc(/C=N/Nc4ccccc4)cc3)sc2c1

Compound: CCn1c2sccc2c2c3nsnc3c3c4ccsc4n(CC)c3c21
fluorescence lifetime (in C1CCOC1): 15 ns | fluorescence lifetime (in CCOC(C)=O): 15.6 ns | fluorescence lifetime (in CN(C)C=O): 16.8 ns | fluorescence lifetime (in Cc1ccccc1): 13 ns | fluorescence lifetime (in ClCCl): 14.6 ns

Compound: Nc1cccnc1
fluorescence lifetime (in C1CCCCC1): 26.5 ns | fluorescence lifetime (in CC#N): 4.6 ns | fluorescence lifetime (in CCO): 6.5 ns | fluorescence lifetime (in CCOCC): 7.7 ns | fluorescence lifetime (in O): 21.1 ns

Compound: CCCCCCC(CCCCCC)n1c(=O)c2c3ccc4cccc5c6cccc7ccc(c2c1=O)c(c76)c3c45
fluorescence lifetime (in C1CCCCC1): 10.5 ns | fluorescence lifetime (in CC#N): 7.5 ns | fluorescence lifetime (in CC(C)=O): 7.8 ns | fluorescence lifetime (in CCCCCC): 9.5 ns | fluorescence lifetime (in CCO): 6.5 ns | fluorescence lifetime (in CCOCC): 9.6 ns | fluorescence lifetime (in CS(C)=O): 7.7 ns | fluorescence lifetime (in Cc1ccccc1): 9.2 ns | fluorescence lifetime (in ClC(Cl)(Cl)Cl): 8.7 ns | fluorescence lifetime (in ClC(Cl)Cl): 6.7 ns

fluorescence lifetime (in CCCCCC): 4.6 ns
Compound: CC(C)(C)c1cc2cc(N(c3ccccc3)c3ccccc3)c3cc(C(C)(C)C)cc4cc(N(c5ccccc5)c5ccccc5)c(c1)c2c43

fluorescence lifetime (in ClCCl): 1.74 ns
Compound: CCCCc1ccc2c(c1)c1ccc3cccc4c3c1c1c2c2cccc3ccc5c6cc(CCCC)ccc6c4c1c5c32

fluorescence lifetime (in C1CCOC1): 1.43 ns
Compound: COc1cc2c(cc1-c1ccc([N+](=O)[O-])cc1)Cc1c3c(c4c(c1-2)-c1cc(OC)c(-c2ccc([N+](=O)[O-])cc2)cc1C4)C(=O)N(CCC(C)C)C3=O

fluorescence lifetime (in C1CCCCC1): 14.3 ns | fluorescence lifetime (in CC#N): 19.1 ns | fluorescence lifetime (in CO): 18.3 ns | fluorescence lifetime (in ClCCl): 12.1 ns
Compound: COc1ccc2c3c(OC)c4ccccc4c(OC)c3n(C)c2c1

fluorescence lifetime (in ClCCl): 22 ns
Compound: CC1(C)c2ccccc2N(c2ccc(-c3n[n+]4c(o3)-c3ccccc3O[B-]4(F)F)cc2)c2ccccc21

Compound: c1ccc([B-]2(c3ccccc3)Oc3ccc4ccccc4c3-c3c4ccccc4nc[n+]32)cc1
fluorescence lifetime (in Cc1ccccc1): 9.59 ns

fluorescence lifetime (in CC#N): 2.85 ns
Compound: N#C/C(=C\c1ccc(C#N)cc1)c1nc(-c2ccc(Cl)cc2)cs1

Compound: Cc1ccc2c(c1)C1(c3ccccc3Oc3ccccc31)c1cc(C)ccc1N2c1ccc(-c2ncccn2)cc1
fluorescence lifetime (in O=P(c1ccccc1)(c1ccccc1)c1ccc2oc3ccc(P(=O)(c4ccccc4)c4ccccc4)cc3c2c1): 11 ns

Compound: N#Cc1nc2c3ccc(-c4ccc(-n5c6ccccc6c6ccccc65)cc4)cc3c3cc(-c4ccc(-n5c6ccccc6c6ccccc65)cc4)ccc3c2nc1C#N
fluorescence lifetime (in O=P(c1ccccc1)(c1ccccc1)c1cccc(-c2cc(-n3c4ccccc4c4ccccc43)cc(-n3c4ccccc4c4ccccc43)c2)n1): 40.6 ns

fluorescence lifetime (in CC#N): 6.5 ns | fluorescence lifetime (in CCCCCC): 5.9 ns
Compound: C/C=C/c1cccc(OC)c1

fluorescence lifetime (in CCCCCC): 60.9 ns | fluorescence lifetime (in CO): 78.6 ns | fluorescence lifetime (in ClCCl): 43.1 ns
Compound: CC(C)(C)c1ccc2ccc3c(C(C)(C)C)ccc4ccc1c2c43

fluorescence lifetime (in O): 4.49 ns
Compound: c1ccc2[nH]ccc2c1

Compound: CCCCCCCCC1(CCCCCCCC)c2ccccc2-c2ccc(-c3nnc(-c4cccc(-n5c6ccc(C(C)(C)C)cc6c6cc(C(C)(C)C)ccc65)c4)o3)cc21
fluorescence lifetime (in Cc1ccccc1): 7.65 ns

fluorescence lifetime (in C1CCCCC1): 1.3 ns | fluorescence lifetime (in CC#N): 0.6 ns
Compound: COc1ccc2c(c1)C(=O)c1cc(OC)cc(OC)c1-2

Compound: Cc1ccc(-c2cc(-c3ccccc3Cl)c3c(N)nc(N4CCCC4)c(C#N)c3n2)cc1
fluorescence lifetime (in CC#N): 11.3 ns | fluorescence lifetime (in CC(C)=O): 11.1 ns | fluorescence lifetime (in CC(C)O): 11.3 ns | fluorescence lifetime (in CO): 9.7 ns | fluorescence lifetime (in ClC(Cl)Cl): 13.7 ns | fluorescence lifetime (in ClCCl): 13.7 ns | fluorescence lifetime (in c1ccccc1): 12.8 ns

fluorescence lifetime (in CC#N): 8 ns | fluorescence lifetime (in ClCCl): 2.1 ns
Compound: Cc1cc(-c2ccc(C(C)(C)C)cc2)cc(C)[o+]1

fluorescence lifetime (in C1CCOC1): 1.5 ns
Compound: CCC1(CC)c2cc(C#Cc3cccs3)ccc2-c2c1c1c(c3c2C(CC)(CC)c2cc(C#Cc4cccs4)ccc2-3)C(CC)(CC)c2cc(C#Cc3cccs3)ccc2-1

fluorescence lifetime (in C1COCCO1): 6.06 ns | fluorescence lifetime (in CO): 0.13 ns | fluorescence lifetime (in CS(C)=O): 0.12 ns
Compound: O=C1/C(=C2\Sc3ccc(S(=O)(=O)Nc4ccccc4)cc3C2=O)Sc2ccc(S(=O)(=O)Nc3ccccc3)cc21

fluorescence lifetime (in CC#N): 3.92 ns
Compound: N#Cc1cc(C#Cc2c(F)c(F)nc(F)c2F)c(C#Cc2c(F)c(F)nc(F)c2F)cc1C#N

Compound: N#Cc1ccc(-c2ccc3c(c2)c2cc(-c4ccc(C#N)cc4)ccc2c2c3nc(-c3ccc(-c4ccc(N(c5ccccc5)c5ccccc5)cc4)cc3)n2-c2ccccc2)cc1
fluorescence lifetime (in C1CCOC1): 1.51 ns | fluorescence lifetime (in CC#N): 2.86 ns | fluorescence lifetime (in CCCCCC): 1.04 ns | fluorescence lifetime (in CCOCC): 1.29 ns

Reference: the Deep4Chem optical property database
